# Measured values: PubChem BioAssay (NCI)
#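 These data come from cells grown in 96-well plates and exposed to compound for 48 hours at five concentrations. TGI: total growth inhibition.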
# Assays:
# Assay in all cases: DTP human tumour cell line panel, 48 h
# [1] = test system: A498 renal
# [2] = test system: CAKI-1 renal
# [3] = test system: LOX IMVI melanoma
# [4] = test system: MDA-N
# [5] = test system: OVCAR-5 ovarian
# [6] = test system: SF-295 CNS
# [7] = test system: SK-MEL-28 melanoma
# [8] = test system: UACC-257 melanoma
# [9] = test system: UACC-62 melanoma
Structure (SMILES),TGI [1],TGI [2],TGI [3],TGI [4],TGI [5],TGI [6],TGI [7],TGI [8],TGI [9]
O=c1[nH]/c(=C/c2cccs2)c(=O)[nH]/c1=C/c1ccc(OCc2ccccc2)cn1,1.15 µM,8.35 µM,> 100 µM,0.0766 µM,> 69.5 µM,0.119 µM,> 100 µM,> 75 µM,40.3 µM
O=c1[nH]nc(Nc2ccccc2)c2nnn(Cc3ccccc3)c12,> 100 µM,> 100 µM,> 100 µM,> 100 µM,> 100 µM,> 100 µM,> 100 µM,> 100 µM,> 100 µM
CC(CCC(=O)O)(c1cc(Br)c(O)c(Br)c1)c1cc(Br)c(O)c(Br)c1,87.7 µM,> 100 µM,> 100 µM,> 100 µM,> 100 µM,> 100 µM,> 100 µM,> 100 µM,> 100 µM
CS(=O)(=O)c1ccc(C2=C(c3ccccc3)C(=O)OC2)cc1,> 100 µM,> 100 µM,> 100 µM,> 100 µM,> 100 µM,> 100 µM,> 100 µM,> 100 µM,> 100 µM
COC(=O)c1ccc2c(c1)CC1(C2)Cc2ccc3c(c2C1)CCC3 (stereo not drawn),,,60.7 µM,17.8 µM,> 100 µM,66.4 µM,> 100 µM,53.8 µM,40.6 µM
CCCc1c(OC)c(O)c2c(=O)cc(OC)c3c4c(OC)cc(=O)c5c(O)c(OC)c(CCC)c(c1c23)c54,31 µM,16.5 µM,4.91 µM,22.7 µM,51.1 µM,31.6 µM,21.1 µM,> 100 µM,59.9 µM
C=CCn1c(-c2ccc(N=NNc3ccc(-c4n[nH]c(=S)n4CC=C)cc3)cc2)n[nH]c1=S,> 100 µM,19.1 µM,> 100 µM,,> 100 µM,15.7 µM,> 100 µM,> 100 µM,
CN(CCN(C)Cc1ccc(Cl)c(Cl)c1)CCN1CCCC1,35.3 µM,> 100 µM,> 58.6 µM,31.4 µM,> 100 µM,> 88.7 µM,20.3 µM,23.9 µM,7.47 µM
O=C(O)C(C1NCCS1)N1Cc2ccccc2C1 (stereo not drawn),> 100 µM,> 100 µM,> 100 µM,> 100 µM,> 100 µM,> 100 µM,> 100 µM,> 100 µM,> 100 µM
O=C1OS2(OC(=O)c3cccc4cccc2c34)c2ccccc21 (stereo not drawn),> 100 µM,> 100 µM,> 100 µM,> 100 µM,> 100 µM,> 100 µM,> 100 µM,> 100 µM,
CC1CN=C(c2ccc3c(c2)Cc2cc(C4=NCC(C)N4)ccc2-3)N1 (stereo not drawn),> 100 µM,> 100 µM,> 100 µM,> 100 µM,> 100 µM,> 100 µM,> 100 µM,> 100 µM,99 µM
COc1cc(/C=C/C(=O)OC[C@]23O[C@H]2[C@@H](OC2OC(C)C(O)C(O)C2O)C2C=CO[C@@H](OC4OC(CO)C(O)C(O)C4O)C23)ccc1O (stereo partly drawn),,,> 100 µM,> 100 µM,> 100 µM,> 100 µM,> 100 µM,,> 100 µM
O=c1[nH]c(=O)n(COCCO)cc1-c1ccccc1,,> 100 µM,> 100 µM,> 100 µM,> 100 µM,> 100 µM,> 100 µM,> 100 µM,> 100 µM
CCOC(=O)Cn1c(=O)c2cc(C)cc3c(Cl)nc4c(OC)c(OC)cc1c4c32,,> 100 µM,> 100 µM,> 100 µM,> 100 µM,> 100 µM,> 100 µM,> 100 µM,> 100 µM
CCOC(=O)n1c2ccccc2c2c(O)c(OC)c3c(c21)C(=O)NC3=O,> 100 µM,64.7 µM,38.9 µM,> 100 µM,> 100 µM,> 100 µM,> 100 µM,> 100 µM,> 100 µM
CC(C)=CCC[C@@H](C)c1c(O)c(O)c(C)c2nc3ccccc3nc12,7.97 µM,9.01 µM,16.8 µM,15.9 µM,17.6 µM,4.93 µM,23.8 µM,12.7 µM,6.72 µM
Cc1ccc(N=c2oc3c(ccc4ccccc43)nc2Nc2ccc(C)cc2)cc1,> 100 µM,> 100 µM,> 100 µM,> 100 µM,> 100 µM,> 100 µM,> 100 µM,> 100 µM,> 100 µM
COC(=O)[C@@]12CC3CN(Cc4c1[nH]c1ccccc41)C2CC3=O,,> 100 µM,> 100 µM,> 100 µM,> 100 µM,> 100 µM,> 100 µM,> 100 µM,> 100 µM
Cc1cc(C)c2c(=O)n(CC(O)CN3CCN(c4ncccn4)CC3)sc2n1 (stereo not drawn),31.1 µM,39.5 µM,33.7 µM,29.5 µM,31.1 µM,> 100 µM,36.6 µM,30.4 µM,31.6 µM
COc1cc2[nH]c(=O)[nH]c2c2c(C)c[nH]c12,> 100 µM,> 100 µM,> 100 µM,> 100 µM,> 100 µM,> 100 µM,> 100 µM,> 100 µM,> 100 µM
CC(C)OCC(O)COc1cc(=O)oc2ccccc12 (stereo not drawn),,> 100 µM,> 100 µM,> 100 µM,> 100 µM,> 100 µM,> 100 µM,> 100 µM,> 100 µM
COc1cc(CNc2nc3cc(C(F)(F)F)ccc3nc2C(=O)O)cc(OC)c1OC,60.7 µM,78.9 µM,> 100 µM,45.2 µM,> 100 µM,43.3 µM,> 100 µM,63.6 µM,28.9 µM
Cc1cc2nc(N)n[n+]([O-])c2cc1C,> 100 µM,> 100 µM,> 100 µM,> 100 µM,> 100 µM,> 100 µM,> 100 µM,> 100 µM,> 100 µM
CCOC(=O)C(NC(=O)Nc1ccccc1)(Nc1cccc(Cl)c1)C(F)(F)F (stereo not drawn),> 100 µM,> 100 µM,> 100 µM,> 100 µM,> 100 µM,,> 100 µM,> 100 µM,> 100 µM
